Drawing on PubChem BioAssay (NCI), this text covers TGI and GI50 for 15 compounds.

Some test systems named below: A498 renal; A549 NSCLC; COLO 205 colon; EKVX NSCLC; MOLT-4 leukemia; OVCAR-5 ovarian; SF-539 CNS; SNB-19 CNS; PC-3 prostate.
What all share (test): growth of human tumour cells (NCI), 48 h

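A five-concentration, 48-hour dose response in 96-well plates underlies each endpoint, interpolated linearly between surrounding concentrations. At the GI50, growth is halved. TGI: total growth inhibition.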 Where only a bound is given, the exact number is not on record here.

`C[C@]12CCNC(=O)C=C1CC[C@@H]1C2CC[C@@]2(C)C1CC[C@@H]2OC(=O)COc1ccc(N(CCCl)CCCl)cc1` (some centres undefined): the TGI in the assay with A498 renal was 36.1 µM; in the assay with A549 NSCLC, 23 µM; in the assay on COLO 205 colon it was 23.9 µM; in the assay on EKVX NSCLC it was 40.3 µM; with MOLT-4 leukemia, above 22.2 µM; in the assay with OVCAR-5 ovarian, 29.5 µM. The TGI with SF-539 CNS came out at 9.01 µM; in the assay on SNB-19 CNS it was 50.7 µM.
In the case of `CC1=C(C)C2(O)C(=C(C)C1=O)/C(=C(/O)c1ccccc1)c1nc3ccccc3n12` (centres undefined), the GI50 in the assay with A498 renal is 23.7 µM; with A549 NSCLC, 19.3 µM; in the assay on COLO 205 colon it was 17.2 µM; with EKVX NSCLC it was 24.5 µM; in the assay with MOLT-4 leukemia it was 24.6 µM; with SF-539 CNS it was 21.7 µM. Moreover, in the assay on SNB-19 CNS, the GI50 is 19.7 µM. Besides, the TGI was determined as 45.4 µM in the assay on A498 renal; 44.4 µM in the assay with A549 NSCLC; 31.3 µM in the assay with COLO 205 colon; 60.4 µM in the assay on EKVX NSCLC; 72.3 µM in the assay on MOLT-4 leukemia; 44.5 µM in the assay with SF-539 CNS. The compound further returned a TGI in the assay on SNB-19 CNS of 46.9 µM.
Take `CC1NC(=O)C2=C1C(N)=NC(=O)C2` (centres undefined): the TGI in the assay on A549 NSCLC, with COLO 205 colon, in the assay on EKVX NSCLC, in the assay on MOLT-4 leukemia, in the assay with OVCAR-5 ovarian and with SF-539 CNS was above 100 µM in each case. In the assay with SNB-19 CNS, this compound yielded a TGI above 100 µM.
Turning to `C=C(C)C(=O)O[C@@H]1C/C(C)=C\[C@H](OC(C)=O)C[C@](C)(O)/C=C2/OC(=O)C(COC(C)=O)=C21`, the TGI is above 20.8 µM in the assay with A498 renal; above 23.3 µM in the assay on A549 NSCLC; 2.37 µM in the assay on COLO 205 colon; 2.07 µM in the assay on EKVX NSCLC; 2.32 µM in the assay with MOLT-4 leukemia; 4.55 µM in the assay with OVCAR-5 ovarian. For the same compound, the TGI is 3.63 µM in the assay with PC-3 prostate, above 28.5 µM with SF-539 CNS and 41.8 µM in the assay with SNB-19 CNS.
Turning to `O=C(C/C(CCC(=O)N(Cc1ccccc1)Cc1ccccc1)=N/Nc1ccc([N+](=O)[O-])cc1[N+](=O)[O-])c1ccccc1`, the TGI in the assay on A549 NSCLC is above 100 µM; in the assay on COLO 205 colon it was above 100 µM; in the assay with EKVX NSCLC, above 100 µM; with MOLT-4 leukemia, 73.9 µM; in the assay with OVCAR-5 ovarian, above 100 µM; with SF-539 CNS, above 100 µM. Moreover, the TGI in the assay with SNB-19 CNS was above 100 µM.
With `CCN(CC)CCn1[nH]c2c3ccc(=O)cc3sc3c(NCCN)ccc1c32`, the TGI was found to be 3.32 µM in the assay with A498 renal; 14.5 µM in the assay with A549 NSCLC; 7.13 µM with EKVX NSCLC; 0.383 µM in the assay with MOLT-4 leukemia; 4.87 µM in the assay with OVCAR-5 ovarian; 1.72 µM in the assay with SF-539 CNS. In the assay on SNB-19 CNS, this compound displayed a TGI of 4.29 µM.
For the compound `CC(C)(C)OC(=O)c1cccnc1/C=N/O`, the TGI in the assay on A549 NSCLC, with COLO 205 colon, in the assay with EKVX NSCLC, with MOLT-4 leukemia, in the assay on OVCAR-5 ovarian and in the assay on SF-539 CNS was above 100 µM in each case. The TGI in the assay on SNB-19 CNS is above 100 µM.
With `O=C1c2ccccc2C(=O)c2sc(Nc3ccccc3Cl)nc21`, the TGI in the assay on A498 renal came to 32.2 µM; with A549 NSCLC, 46.2 µM; in the assay with COLO 205 colon it was 29 µM; in the assay with EKVX NSCLC, 22.2 µM; in the assay on MOLT-4 leukemia, 11.1 µM; with OVCAR-5 ovarian, 41 µM. The TGI with PC-3 prostate was 25.9 µM; in the assay on SF-539 CNS, 31.4 µM; with SNB-19 CNS, 28.1 µM.
For the compound `COC1C2c3cc4c(cc3CC(C#N)(c3ccccc32)N1C(=O)c1ccccc1)OCO4` (centres undefined), the TGI in the assay on COLO 205 colon, in the assay on EKVX NSCLC, in the assay on MOLT-4 leukemia, in the assay with OVCAR-5 ovarian, with SF-539 CNS and in the assay on SNB-19 CNS was above 100 µM throughout.
Consider `C/C=C/COC(=O)CO[N+](=O)[O-]`, for which the TGI with A549 NSCLC, in the assay with COLO 205 colon, with EKVX NSCLC, in the assay with MOLT-4 leukemia, in the assay on OVCAR-5 ovarian and in the assay on SF-539 CNS was above 100 µM throughout. In the assay on SNB-19 CNS, this compound registered a TGI above 100 µM.
Consider `O=c1[nH]c(=O)n(C2OC(CO)C(O)C2O)cc1OCC(F)(F)F` (centres undefined), for which the TGI in the assay on A498 renal, in the assay on A549 NSCLC, in the assay with COLO 205 colon, in the assay on EKVX NSCLC, in the assay with MOLT-4 leukemia and in the assay on OVCAR-5 ovarian was above 100 µM throughout. For the same compound, the TGI with SF-539 CNS and with SNB-19 CNS was above 100 µM throughout.
`Cc1nc2sccn2c1C(=O)NC(=O)Nc1ccc(Cl)cc1`: the TGI in the assay on A498 renal, in the assay with A549 NSCLC, with COLO 205 colon, in the assay with EKVX NSCLC, in the assay on MOLT-4 leukemia and in the assay on OVCAR-5 ovarian was above 100 µM each time. Besides, the TGI in the assay on SF-539 CNS and with SNB-19 CNS was above 100 µM throughout.
On to `CCOC(=O)C(CNc1ccc(O)cc1)NC(=O)c1ccccc1` (centres undefined), for which the TGI with A498 renal, in the assay on A549 NSCLC, with COLO 205 colon, with EKVX NSCLC, in the assay on MOLT-4 leukemia and with OVCAR-5 ovarian was above 100 µM throughout. The TGI in the assay on SF-539 CNS and with SNB-19 CNS was above 100 µM each time.
As for `CCOC(=O)C1([Se]c2ccccc2)CCCC1=O` (centres undefined), the TGI in the assay on A498 renal was above 100 µM; in the assay with A549 NSCLC, above 100 µM; with COLO 205 colon, 30.8 µM; with EKVX NSCLC it was 86.8 µM; with MOLT-4 leukemia, 57.1 µM; in the assay on OVCAR-5 ovarian it was above 100 µM. Besides, the TGI was 43.6 µM with SF-539 CNS and above 100 µM with SNB-19 CNS.
For `COc1cc2c(cc1C1=NC(C)(C)CO1)OCO2`, the TGI in the assay on A549 NSCLC, in the assay with COLO 205 colon, with EKVX NSCLC, in the assay with MOLT-4 leukemia, in the assay on SF-539 CNS and in the assay on SNB-19 CNS was above 100 µM throughout.
